SMILES strings stand for the structures. Activity calls are given as the source filed them. The calls are words filed in the database; no cut-off is given here.

The subject of data set [1] is PC-12. Briefly: Neuritogenic activity in rat PC12 cells assessed as induction of neural differentiation at 5 to 10 uM incubated for 96 hrs by microscopic analysis. The following applies: dose 5-10 µM. In kind it is functional, cell-based.
Data set [2] has as its system PC-12. Description: Induction of neural differentiation in rat PC12 cells assessed as increase in Tuj-1 expression at 10 uM incubated for 96 hrs by immunofluorescence staining based assay. In kind it is functional, cell-based.
In data set [3] the test system is PC-12. Briefly: Neuritogenic activity in rat PC12 cells assessed as induction of neural differentiation incubated for 96 hrs by microscopic analysis. The following applies: dose > 5.0 µM. In kind it is functional, cell-based.
A short description of data set [4]: Drug uptake in rat PC12 cells by HPLC analysis. In kind it is ADME, cell-based. The following applies: pc-12.
Data set [5] in a line: Drug metabolism in rat PC12 cells assessed as formation of 3-amino-5,6,7,8-tetrahydrothieno[2,3-b]quinoline-2-carbonitrile metabolite by fluorescence based assay. In kind it is ADME, cell-based. The following applies: pc-12.
Data set [6] is described as follows: Drug uptake in rat PC12 cells by fluorescence based assay. The format is ADME, cell-based. The following applies: pc-12.
The nature of data set [7]: Drug metabolism in rat PC12 cells assessed as formation of 3-amino-5,6,7,8-tetrahydrothieno[2,3-b]quinoline-2-carbonitrile metabolite by HPLC analysis. The format is ADME, cell-based. The following applies: pc-12.
Data set [8] in a line: Fluorescent property of compound in chloroform as wavelength of excitation. The format is physicochemical.
Data set [9] is described as follows: Fluorescent property of compound in toluene assessed as wavelength of emission. In kind it is physicochemical.
Data set [10] can be described thus: Fluorescent property of compound in DMSO assessed as wavelength of emission. In kind it is physicochemical.
The nature of data set [11]: Drug uptake in cytoplasm of rat PC12 cells incubated for 24 hrs by fluorescence staining based microscopy. In kind it is ADME, subcellular. The following applies: pc12, 24 h.
A short description of data set [12]: Fluorescent property of compound in chloroform assessed as wavelength of emission. In kind it is physicochemical.
The nature of data set [13]: Fluorescent property of compound in toluene assessed as wavelength of excitation. In kind it is physicochemical.
A short description of data set [14]: Fluorescent property of compound in methanol assessed as wavelength of excitation. In kind it is physicochemical.
For data set [15], the system named is PC-12. Description: Neuritogenic activity in NGF-insensitive rat PC12 cells assessed as fold increase in induction of neural differentiation at 20 uM incubated for 96 hrs by microscopic analysis relative to control. The format is functional.
Data set [16] is described as follows: Fluorescent property of compound in methanol assessed as wavelength of emission. In kind it is physicochemical.
The nature of data set [17]: Fluorescent property of compound in acetonitrile assessed as wavelength of emission. In kind it is physicochemical.
The nature of data set [18]: Drug uptake in rat PC12 cells at 20 uM incubated upto 2 hrs by HPLC analysis. In kind it is ADME, cell-based. The following applies: pc-12, 2 h.
A short description of data set [19]: Fluorescent property of compound in acetonitrile assessed as wavelength of excitation. In kind it is physicochemical.
Data set [20] is described as follows: Fluorescent property of compound in DMSO assessed as wavelength of excitation. In kind it is physicochemical.

`CC(=O)c1sc2nc3c(cc2c1N)CCCC3`: the outcome with PC-12 [1] was inactive.
Same read-out and setting: under `N#Cc1sc2nc3c(cc2c1N)CCC3` stands “Active”.
The same measure, in the same setting: as for `N#Cc1sc2ncccc2c1N`, the entry is “inactive”.
Same read-out and setting: under `CCOC(=O)c1sc2nc3c(cc2c1N)CCCC3` stands “inactive”.
For the compound `N#Cc1sc2nc3c(cc2c1NC=O)CCCC3`, the result with PC-12 [2] and in the data set on PC-12 [1] was Active. Further, the Activity entry with PC-12 [3] is “Dose-Dependent Effect”. Also, the Drug uptake entry in data set [4] and in data set [6] was “Active” each time. In addition, the Drug metabolism result in [5] and in [7] was “Metabolite_Detected” in each case.
Regarding `N#Cc1sc2nc(N3CCCCC3)c3c(c2c1N)CCCC3`, in the data set with PC-12 [1], the result was inactive.
On the same count and under the same terms, as for `CC(=O)Nc1c(C#N)sc2nc3c(cc12)CCCC3`, the entry is “inactive”; as for `N#Cc1sc2ncc3c(c2c1N)CCCC3`, “Active”.
Turning to `N#Cc1sc2nc3c(cc2c1N)CCCC3`, the Activity in [8] was 343 nm; in data set [9], 434 nm; in [10] it was 478 nm; in the data set on PC-12 [3] it was “Dose-Dependent Effect”; in data set [12] it was 453 nm; in [13] it was 343 nm. The Activity in [14] stood at 356 nm; in data set [16], 485 nm; in data set [17], 460 nm; in data set [19], 345 nm; in data set [20], 359 nm. Besides, the Drug uptake result in data set [11] and in data set [18] was “Active” in each case. In addition, the outcome in the data set on PC-12 [2] and with PC-12 [1] was Active. Further, the “fold change (FC)” value with PC-12 [15] stood at 20.
Consider `N#Cc1sc2nc(N3CCOCC3)c3c(c2c1N)CCCC3`, for which the outcome in the data set on PC-12 [1] was inactive.
On the same count and under the same terms, as for `NC(=O)c1sc2nc3c(cc2c1N)CCCC3`, the entry is “inactive”.

Values taken from ChEMBL document CHEMBL5335816, “3-Amino-5,6,7,8-tetrahydrothieno[2,3-b]quinoline-2-carbonitrile: A fluorescent molecule that induces differentiation in PC12 cells” (Bioorg Med Chem, 2024).
